Reference: ChEMBL document CHEMBL1782006, “Discovery of diphenylmethane analogs as anti-bovine diarrhea viral agents” (Bioorg Med Chem Lett, 2009)

Tests used:
[1] = Cytotoxicity in MDBK cells assessed as reduction in cell viability; type: cell-based, Bos taurus; conditions: cattle
[2] = system: Bovine viral diarrhea virus 1; experiment: Antiviral activity against BVDV1 Nose infected in MDBK cells assessed as inhibition of virus replication-induced cell destruction; type: functional, organism-based; conditions: Bovine viral diarrhea virus isolates and strains
[3] = Selectivity index, ratio of CC50 for MDBK cells to EC50 for antiviral activity against BVDV1 Nose

EC50 [2] [µM] | Compound | CC50 [1] [µM] | Ratio CC50/EC50 [3]
8.6 | CCC(CC)(c1ccc(O)c(C)c1)c1ccc(OCC(=O)C(C)(C)C)c(C)c1 | 5.23 | –
12.8 | Cc1cc([Si](C)(C)c2ccc(OCC(=O)C(C)(C)C)c(C)c2)ccc1OCC(=O)C(C)(C)C | > 100 | –
25 | CCC(CC)(c1ccc(NCC(O)C(C)(C)C)c(C)c1)c1ccc(OC[C@@H](O)CO)c(C)c1 (stereo partly drawn) | 43 | 1.72
28 | CCC(CC)(c1ccc(OCC(=O)C(C)(C)C)c(C)c1)c1ccc(N(CC(=O)C(C)(C)C)Cc2ccccc2)c(C)c1 | > 100 | –
12 | Cc1cc(C(C)(C)c2ccc(OCC(=O)C(C)(C)C)c(C)c2)ccc1OCC(=O)C(C)(C)C | > 100 | –
8.9 | CCC(CC)(c1ccc(NCC(=O)C(C)(C)C)c(C)c1)c1ccc(OCC(=O)C(C)(C)C)c(C)c1 | 82 | 9.21
8.4 | CC[Si](CC)(c1ccc(OCC(=O)C(C)(C)C)c(C)c1)c1ccc(OCC(=O)C(C)(C)C)c(C)c1 | > 100 | –

More lines, now with the values behind:

Compound | EC50 [2] [µM] | CC50 [1] [µM] | Ratio CC50/EC50 [3]
CC[Si](CC)(c1ccc(OCC(=O)C(C)(C)C)cc1)c1ccc(OCC(=O)C(C)(C)C)cc1 | 6.2 | > 100 | –
Cc1cc(C2(c3ccc(OCC(=O)C(C)(C)C)c(C)c3)CCCC2)ccc1OCC(=O)C(C)(C)C | 13 | > 100 | –
CC[Si](CC)(c1ccc(O)cc1)c1ccc(OCC(=O)C(C)(C)C)cc1 | 8 | 46.8 | 5.85
CCN(CC)C(=O)Oc1ccc(C(CC)(CC)c2ccc(NC(C)=O)c(C)c2)cc1C | 10 | 50 | 5
Cc1cc(C2(c3ccc(OCC(=O)C(C)(C)C)c(C)c3)CCC2)ccc1OCC(=O)C(C)(C)C | 6.3 | > 100 | –
CCC(CC)(c1ccc(O)cc1)c1ccc(O)cc1 | 10 | 39 | 3.9
Nc1ccc(C2(c3ccc(O)cc3)CCCCC2)cc1 | > 42 | 42 | –
